Results taken from patent US20250241297A1, “TERNARY SOLVENT SYSTEMS FOR STABLE PLANT GROWTH REGULATOR FORMULATIONS” (priority 2024, published 2025).
Where two headings read alike, the source gives them in different places.

Key:
[1] = Storage stability of aqueous formulation CE1, PGR content after 1 year; assay type: physicochemical; conditions: in aqueous formulation CE1, 1 year of storage
Method: Comparative Example 1: A combination of three PGRs (kinetin, GA3, and IBA) were dissolved in water along with a defoamer and a phosphate ester surfactant at the ratios specified in Table CE1: […] This is typical behavior for an aqueous system containing these PGRs.

[2] = Accelerated aging test of formulation E1, 54° C. for 2 weeks; assay type: physicochemical; conditions: for 2-Weeks at 54° C.: in formulation E1, after 2 weeks at 54° C.; for Initial Assay: in formulation E1, before accelerated aging; for Percent Change: in formulation E1, initial vs 2 weeks at 54° C.
Method: Example 1 (E1): A combination of three PGRs (kinetin, GA3, and IBA) were dissolved in a ternary solvent system containing a high dielectric solvent (DMSO), a medium dielectric solvent (HALLCOMID® M-8-10), and a low dielectric solvent (methyl soyate) with surfactants (ETHOX® CO-40 and ETHFAC® 140) at the ratios specified in Table E1:
The formulation was tested in an accelerated aging test by storing the sample at 54° C. for 2 weeks and measuring the content of the PGRs before and after testing. This was to follow the EPA's Office of Pesticide Programs guidelines for product chemistry and stability.
Table 2 illustrates initial formulation stability and stability at two-weeks as a percentage change in the amount (vol. %) of each PGR: […]

[3] = Solubility of PGRs in solvents
Excerpt: In some examples, the ratios of the plurality of non-aqueous solvents may be selected based on a relative amount and type of PGR compound selected for the agrochemical formulation. For example, an amount (e.g., vol. %) of a high dielectric solvent may be selected to fully dissolve selected amounts (e.g., vol. %) of one or more PGRs of the plurality of selected PGRs, which may only be soluble, or at least more soluble in, the high dielectric solvent. Additionally, an amount of (e.g., vol. %) of a medium dielectric solvent and/or a low dielectric solvent may be selected for similar reasons.

[4] = cited from earlier work

detected level of active ingredient after 1 year of storage [1]	loss of active ingredient after 1 year of storage [1]	2-Weeks at 54° C. [2]	Initial Assay [2]	Percent Change [2]	solubility in DMSO [3]	solubility in vegetable oil or modified vegetable oil solvents [3]	Compound	solubility in DMSO ([3]; DMSO)	solubility in vegetable oil or modified vegetable oil solvents ([3]; vegetable oil or modified vegetable oil solvents)	chemical breakdown in water [4]
not detected	100%	0.047%	0.047%	0.00%	–	–	O=C(O)CCCc1c[nH]c2ccccc12 [IBA, indole-3-butyric acid]	–	–	facilitates the chemical breakdown
0.0015%	83%	0.090%	0.099%	9.09%	3.3%	virtually insoluble	c1coc(CNc2ncnc3[nH]cnc23)c1 [kinetin]	–	–	–

Compound	detected level of active ingredient after 1 year of storage [1]	loss of active ingredient after 1 year of storage [1]	2-Weeks at 54° C. [2]	Initial Assay [2]	Percent Change [2]	solubility in DMSO [3]	solubility in vegetable oil or modified vegetable oil solvents [3]	solubility in DMSO ([3]; DMSO)	solubility in vegetable oil or modified vegetable oil solvents ([3]; vegetable oil or modified vegetable oil solvents)	chemical breakdown in water [4]
C=C1C[C@]23C[C@@]1(O)CC[C@H]2[C@@]12C=C[C@H](O)[C@@](C)(C(=O)O1)[C@@H]2[C@@H]3C(=O)O [GA3, (3S,3aS,4S,4aS,7S,9aR,9bR,12S)-7,12-Dihydroxy-3-methyl-6-methylene-2-oxoperhydro-4a,7-methano-9b,3-propenoazuleno[1,2-b]furan-4-carboxylic acid]	0.0005%	91%	0.055%	0.058%	5.17%	–	–	1.5%	virtually insoluble	–
